target: T1, TYK2 kinase domain (Homo sapiens, UniProt P29597); test: JAK1, JAK2 and TYK2 Inhibition Assay Protocol (Caliper LabChip, isolated kinase domain); assay type: biochemical; details: 1 nM purified TYK2 enzyme, 25 uM ATP, Morrison tight binding model; read-out: Ki values for TYK2 inhibition
T1 construct: The activity of the isolated JAK1, JAK2 or TYK2 kinase domain was measured
T1 sequence (P29597 897-1176 limits assumed): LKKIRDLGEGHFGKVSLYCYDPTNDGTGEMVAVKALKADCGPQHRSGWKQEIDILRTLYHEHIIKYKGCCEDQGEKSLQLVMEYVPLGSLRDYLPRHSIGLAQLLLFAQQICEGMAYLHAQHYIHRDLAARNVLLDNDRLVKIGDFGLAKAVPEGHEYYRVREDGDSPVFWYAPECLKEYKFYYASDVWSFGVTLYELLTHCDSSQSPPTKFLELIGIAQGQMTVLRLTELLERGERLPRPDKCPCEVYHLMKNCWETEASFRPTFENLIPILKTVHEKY
Experimental: The activity of the isolated JAK1, JAK2 or TYK2 kinase domain was measured by monitoring phosphorylation of a peptide derived from JAK3 (Val-Ala-Leu-Val-Asp-Gly-Tyr-Phe-Arg-Leu-Thr-Thr) fluorescently labeled on the N-terminus with 5-carboxyfluorescein using the Caliper LabChip technology (Caliper Life Sciences, Hopkinton, Mass.). To determine the inhibition constants (Ki) of Examples 1-11, compounds were diluted serially in DMSO and added to 50 uL kinase reactions containing 1.5 nM JAK1, 0.2 nM purified JAK2 or 1 nM purified TYK2 enzyme, 100 mM Hepes pH7.2, 0.015% Brij-35, 1.5 uM peptide substrate, 25 uM ATP, 10 mM MgCl2, 4 mM DTT at a final DMSO concentration of 2%. Reactions were incubated at 22° C. in 384-well polypropylene microtiter plates for 30 minutes and then stopped by addition of 25 uL of an EDTA containing solution (100 mM Hepes pH 7.2, 0.015% Brij-35, 150 mM EDTA), resulting in a final EDTA concentration of 50 mM. After termination of the kinase reaction, the proportion of phosphorylated product was determined as a fraction of total peptide substrate using the Caliper LabChip 3000 according to the manufacturer's specifications. Ki values were then determined using the Morrison tight binding model. Morrison, J. F., Biochim. Biophys. Acta. 185:269-296 (1969); William, J. W. and Morrison, J. F., Meth. Enzymol., 63:437-467 (1979).

Row | Ki | SMILES
1 | 0.4 nM | N#Cc1cccc(F)c1-c1nc2ccnc(Nc3cc(N)ncn3)c2[nH]1 [Example 1, 2-(4-(6-aminopyrimidin-4-ylamino)-3H-imidazo[4,5-c]pyridin-2-yl)-3-fluorobenzonitrile]
2 | 2.7 nM | Cc1cc(Nc2nccc3nc(-c4c(C#N)cccc4C#N)[nH]c23)ncn1 [Example 7, 2-(4-(6-methylpyrimidin-4-ylamino)-3H-imidazo[4,5-c]pyridine-2-yl)isophthalonitrile]
3 | 6 nM | N#Cc1cccc(F)c1-c1nc2ccnc(NC(=O)C3CC3)c2[nH]1 [Example 11, N-(2-(2-cyano-6-fluorophenyl)-3H-imidazo[4,5-c]pyridin-4-yl)cyclopropanecarboxamide]

same assay, conditions: Table 1; 1 nM purified TYK2 enzyme, 25 uM ATP, Morrison tight binding model; read-out: TYK2 Ki

Row | Ki | SMILES
4 | 0.4 nM | N#Cc1cccc(Cl)c1-c1nc2ccnc(Nc3cc(N)ncn3)c2[nH]1 [Example 2, 2-(4-(6-aminopyrimidin-4-ylamino)-3H-imidazo[4,5-c]pyridine-2-yl)-3-chlorobenzonitrile]
5 | 0.8 nM | N#Cc1cccc(Cl)c1-c1nc2ccnc(Nc3cc(CO)ncn3)c2[nH]1 [Example 5, 3-chloro-2-(4-(6-(hydroxymethyl)pyrimidin-4-ylamino)-3H-imidazo[4,5-c]pyridin-2-yl)benzonitrile]
6 | 2 nM | N#Cc1cccc(F)c1-c1nc2ccnc(Nc3cc(CO)ncn3)c2[nH]1 [Example 9, 3-fluoro-2-(4-(6-(hydroxymethyl)pyrimidin-4-ylamino)-3H-imidazo[4,5-c]pyridin-2-yl)benzonitrile]
7 | 1.3 nM | N#Cc1cccc(Cl)c1-c1nc2ccnc(NC(=O)C3CC3)c2[nH]1 [Example 10, N-(2-(2-chloro-6-cyanophenyl)-3H-imidazo[4,5-c]pyridin-4-yl)cyclopropanecarboxamide]
8 | 0.7 nM | CNc1cc(Nc2nccc3nc(-c4c(F)cccc4C#N)[nH]c23)ncn1 [Example 8, 3-fluoro-2-(4-(6-(methylamino)pyrimidin-4-ylamino)-3H-imidazo[4,5-c]pyridin-2-yl)benzonitrile]
9 | 1 nM | Cc1cc(Nc2nccc3nc(-c4c(F)cccc4C#N)[nH]c23)ncn1 [Example 4, 3-fluoro-2-(4-(6-methylpyrimidin-4-ylamino)-3H-imidazo[4,5-c]pyridine-2-yl)benzonitrile]
10 | 0.6 nM | CNc1cc(Nc2nccc3nc(-c4c(Cl)cccc4C#N)[nH]c23)ncn1 [Example 6, 3-chloro-2-(4-(6-(methylamino)pyrimidin-4-ylamino)-3H-imidazo[4,5-c]pyridin-2-yl)benzonitrile]
11 | 0.8 nM | Cc1cc(Nc2nccc3nc(-c4c(Cl)cccc4C#N)[nH]c23)ncn1 [Example 3, 3-chloro-2-(4-(6-methylpyrimidin-4-ylamino)-3H-imidazo[4,5-c]pyridine-2-yl)benzonitrile]
